In ChEMBL document CHEMBL1177743, “Symbiopolyol, a VCAM-1 inhibitor from a symbiotic dinoflagellate of the jellyfish Mastigias papua” (J Nat Prod, 2010):

Legend:
HUVEC [1] = assay: Toxicity in HUVEC up to 12 uM; assay type: cell-based; details: human
HUVEC [2] = assay: Inhibition of VCAM1 expression in TNF-alpha-stimulated HUVEC pretreated 30 mins before TNFalpha challenge for 18 hrs by ELISA; assay type: functional, cell-based; details: Homo sapiens
[3] = target: T1, Vascular cell adhesion protein 1 (Homo sapiens) (UniProt P19320); assay: Inhibition of VCAM1 in TNF-alpha/IL4-stimulated HUVEC assessed as inhibition of cell adhesion between HUVEC and Ramos cells at 8 uM after 20 hrs incubation relative to untreated control; assay type: cell-based
T1 sequence (whole entry): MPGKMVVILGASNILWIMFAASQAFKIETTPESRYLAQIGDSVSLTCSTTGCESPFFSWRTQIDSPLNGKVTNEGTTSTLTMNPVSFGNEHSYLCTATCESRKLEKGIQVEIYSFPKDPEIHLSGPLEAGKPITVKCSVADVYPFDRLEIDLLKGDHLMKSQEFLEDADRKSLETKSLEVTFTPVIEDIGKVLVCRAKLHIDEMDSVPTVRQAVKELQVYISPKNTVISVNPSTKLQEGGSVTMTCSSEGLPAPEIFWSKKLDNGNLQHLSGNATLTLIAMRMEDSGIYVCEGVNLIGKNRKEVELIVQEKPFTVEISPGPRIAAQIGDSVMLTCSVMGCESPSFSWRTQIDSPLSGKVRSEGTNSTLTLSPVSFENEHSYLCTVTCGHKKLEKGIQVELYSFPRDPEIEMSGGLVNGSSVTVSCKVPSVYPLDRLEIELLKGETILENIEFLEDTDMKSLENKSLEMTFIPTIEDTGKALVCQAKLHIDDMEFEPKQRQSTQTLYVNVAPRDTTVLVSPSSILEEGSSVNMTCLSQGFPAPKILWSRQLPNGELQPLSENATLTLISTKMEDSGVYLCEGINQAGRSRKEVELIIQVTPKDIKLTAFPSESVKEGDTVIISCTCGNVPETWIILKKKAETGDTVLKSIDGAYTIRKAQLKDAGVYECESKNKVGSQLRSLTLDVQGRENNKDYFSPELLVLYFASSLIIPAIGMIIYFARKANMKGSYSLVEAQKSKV

## C=CCC/C=C/C=C/C=C/CC/C=C/[C@@H](O)[C@H](O)[C@@H]1O[C@@H]([C@H](O)[C@@H](O)C(=C)CC[C@@H](O)[C@H]2C[C@@H](O)[C@@H](O)[C@H]([C@@H](O)[C@H](O)/C=C(\C)CC[C@H](O)C[C@H](O)[C@H](O)C(C)C(O)C(O)C/C=C/CC(O)/C=C/CCCCCOS(=O)(=O)[O-])O2)C[C@@H](O)[C@H]1O.[Na+] (stereo partly drawn) [SYMBIOPOLYOL]
HUVEC [1]
  Activity: Non-toxic
HUVEC [2]
  IC50: 6.62 µM
[3]
  inhibition: 77%
